Reference: patent US20260206755A1, “COMPOUNDS AND COMPOSITIONS HAVING KNOCK-DOWN OR BLOOD FEED INHIBITION ACTIVITY AGAINST INSECT PESTS” (priority 2017, published 2026)
Read-outs that look alike come from different tables or passages of the source.

System: Anopheles stephensi
Assay: Anopheles stephensi treated well plate contact test: knockdown and mortality
Format: in vivo
Details: for mortality at 200 ppm / pest or weed control at 200 ppm: test compound 200 ppm; for pest or weed control at 200 ppm: adult females
How it was run: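 Well surfaces coated with ethanol solution of compound at a defined concentration, alone or with 2 ppm TFNA-AM, then dried. Five non-blood-fed 2–5-day-old adult females per well, fed 10% sucrose; knockdown scored at 1 hour, mortality at 24 and 48 hours, replicate means reported.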

[1] = Anopheles stephensi, test compound 0.2 ppm, without TFNA-AM, after 24 hours, read-out: mortality % 24, without TFNA-AM
[2] = Anopheles stephensi, test compound 0.2 ppm, without TFNA-AM, after 48 hours, read-out: mortality % 48, without TFNA-AM
[3] = Anopheles stephensi, test compound 0.2 ppm, without TFNA-AM, knockdown after 1 hour, read-out: Knock Down, without TFNA-AM
[4] = Anopheles stephensi, test compound 2 ppm, without TFNA-AM, after 24 hours, read-out: mortality % 24, without TFNA-AM
[5] = Anopheles stephensi, test compound 2 ppm, without TFNA-AM, after 48 hours, read-out: mortality % 48, without TFNA-AM
[6] = Anopheles stephensi, test compound 2 ppm, without TFNA-AM, knockdown after 1 hour, read-out: Knock Down, without TFNA-AM
[7] = Anopheles stephensi, test compound 20 ppm, without TFNA-AM, after 24 hours, read-out: mortality % 24, without TFNA-AM
[8] = Anopheles stephensi, test compound 20 ppm, without TFNA-AM, after 48 hours, read-out: mortality % 48, without TFNA-AM
[9] = Anopheles stephensi, test compound 20 ppm, without TFNA-AM, knockdown after 1 hour, read-out: Knock Down, without TFNA-AM
[10] = Anopheles stephensi, without TFNA-AM, after 24 hours, read-out: mortality % 24, without TFNA-AM
[11] = Anopheles stephensi, without TFNA-AM, after 48 hours, read-out: mortality % 48, without TFNA-AM
[12] = Anopheles stephensi, without TFNA-AM, knockdown after 1 hour, read-out: Knock Down, without TFNA-AM
[13] = test compound 0.2 ppm plus 2 ppm TFNA-AM, after 24 hours
[14] = test compound 0.2 ppm plus 2 ppm TFNA-AM, after 48 hours
[15] = test compound 0.2 ppm plus 2 ppm TFNA-AM, knockdown after 1 hour
[16] = test compound 2 ppm plus 2 ppm TFNA-AM, knockdown after 1 hour
[17] = test compound 20 ppm plus 2 ppm TFNA-AM, after 48 hours
[18] = test compound 20 ppm plus 2 ppm TFNA-AM, knockdown after 1 hour
[19] = test compound 200 ppm plus 2 ppm TFNA-AM, after 24 hours
[20] = test compound 200 ppm plus 2 ppm TFNA-AM, after 48 hours
[21] = test compound 200 ppm plus 2 ppm TFNA-AM, knockdown after 1 hour
[22] = test compound 0.02 ppm plus 2 ppm TFNA-AM, after 24 hours
[23] = test compound 0.02 ppm plus 2 ppm TFNA-AM, after 48 hours
[24] = test compound 0.02 ppm plus 2 ppm TFNA-AM, knockdown after 1 hour
[25] = test compound 2 ppm plus 2 ppm TFNA-AM, after 24 hours
[26] = test compound 2 ppm plus 2 ppm TFNA-AM, after 48 hours
[27] = test compound 20 ppm plus 2 ppm TFNA-AM, after 24 hours

Compound	mortality at 0.2 ppm [1]	mortality at 0.2 ppm [2]	pest or weed control at 0.2 ppm [3]	mortality at 2 ppm [4]	mortality at 2 ppm [5]	pest or weed control at 2 ppm [6]	mortality at 20 ppm [7]	mortality at 20 ppm [8]	pest or weed control at 20 ppm [9]	mortality at 200 ppm [10]	mortality at 200 ppm [11]	mortality % 24, with TFNA-AM [13]	mortality % 48, with TFNA-AM [14]	Knock Down, with TFNA-AM [15]	Knock Down, with TFNA-AM [16]	mortality % 48, with TFNA-AM [17]	Knock Down, with TFNA-AM [18]	mortality % 24, with TFNA-AM [25]	mortality % 48, with TFNA-AM [26]	mortality % 24, with TFNA-AM [27]	also measured
CC(c1ccc(C(F)(F)F)nc1)S(C)(=O)=NC#N (centres unmarked) [Sulfoxaflor]	0%	30%	0%	0%	60%	0%	70%	80%	0%	80%	100%	0%	20%	100%	100%	90%	100%				pest or weed control at 200 ppm [12]: 20%; mortality % 24, with TFNA-AM [19]: 90%; mortality % 48, with TFNA-AM [20]: 100%; Knock Down, with TFNA-AM [21]: 100%
N#Cc1nn(-c2c(Cl)cc(C(F)(F)F)cc2Cl)c(N)c1[S+]([O-])C(F)(F)F (centres unmarked) [Fipronil]	20%	40%	0%	40%	100%	0%	100%	100%	0%			60%	100%	100%	100%	100%	100%	80%	100%	100%	mortality at 0.02 ppm (Anopheles stephensi, test compound 0.02 ppm, without TFNA-AM, after 24 hours, read-out: mortality % 24, without TFNA-AM): 0%; mortality at 0.02 ppm (Anopheles stephensi, test compound 0.02 ppm, without TFNA-AM, after 48 hours, read-out: mortality % 48, without TFNA-AM): 20%; pest or weed control at 0.02 ppm (Anopheles stephensi, test compound 0.02 ppm, without TFNA-AM, knockdown after 1 hour, read-out: Knock Down, without TFNA-AM): 0%; mortality % 24, with TFNA-AM [22]: 0%; mortality % 48, with TFNA-AM [23]: 0%; Knock Down, with TFNA-AM [24]: 100%
CC(C)=C[C@@H]1[C@@H](C(=O)O[C@H](C#N)c2cccc(Oc3ccccc3)c2)C1(C)C (relative stereo) [d-d, trans cyphenothrin]												60%	100%	100%	100%	100%	100%	100%	100%	100%	mortality % 24, with TFNA-AM [22]: 60%; mortality % 48, with TFNA-AM [23]: 20%; Knock Down, with TFNA-AM [24]: 100%; mortality % 24, without TFNA-AM (test compound 0.02 ppm, without TFNA-AM, after 24 hours): 0%; mortality % 48, without TFNA-AM (test compound 0.02 ppm, without TFNA-AM, after 48 hours): 0%; Knock Down, without TFNA-AM (test compound 0.02 ppm, without TFNA-AM, knockdown after 1 hour): 0%; mortality % 24, without TFNA-AM (test compound 0.2 ppm, without TFNA-AM, after 24 hours): 0%; mortality % 48, without TFNA-AM (test compound 0.2 ppm, without TFNA-AM, after 48 hours): 0%; Knock Down, without TFNA-AM (test compound 0.2 ppm, without TFNA-AM, knockdown after 1 hour): 0%; mortality % 24, without TFNA-AM (test compound 2 ppm, without TFNA-AM, after 24 hours): 0%; mortality % 48, without TFNA-AM (test compound 2 ppm, without TFNA-AM, after 48 hours): 0%; Knock Down, without TFNA-AM (test compound 2 ppm, without TFNA-AM, knockdown after 1 hour): 0%; mortality % 24, without TFNA-AM (test compound 20 ppm, without TFNA-AM, after 24 hours): 40%; mortality % 48, without TFNA-AM (test compound 20 ppm, without TFNA-AM, after 48 hours): 60%; Knock Down, without TFNA-AM (test compound 20 ppm, without TFNA-AM, knockdown after 1 hour): 0%
O=[N+]([O-])NC1=NCCN1Cc1ccc(Cl)nc1 [Imidacloprid]	0%	0%	0%	20%	20%	0%	20%	60%	0%	40%	60%		0%	100%	100%	100%	100%	100%	100%	100%	pest or weed control at 200 ppm [12]: 40%; mortality % 24, with TFNA-AM [19]: 100%; mortality % 48, with TFNA-AM [20]: 100%; Knock Down, with TFNA-AM [21]: 100%
